Results from paper PMC6934184, “Selective DNA-PKcs inhibition extends the therapeutic index of localized radiotherapy and chemotherapy” (The Journal of Clinical Investigation, 2019).

Molecular target: T1, GRK6 (Homo sapiens, UniProt P43250)
T1 construct: purchased Thermo Fisher Scientific (Life Technologies) SelectScreen
Experiment: SelectScreen Z'LYTE
Format: biochemical
Method in brief: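 Compound tested in SelectScreen activity assays, Z'LYTE for CSF1R, CDK1/cyclin B and MAP2K6 and Adapta for CAMK1. ATP for CAMK1 was listed as 10, and Km app was used for CSF1R. Results are expressed in percent.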

T1 sequence (P43250 whole entry): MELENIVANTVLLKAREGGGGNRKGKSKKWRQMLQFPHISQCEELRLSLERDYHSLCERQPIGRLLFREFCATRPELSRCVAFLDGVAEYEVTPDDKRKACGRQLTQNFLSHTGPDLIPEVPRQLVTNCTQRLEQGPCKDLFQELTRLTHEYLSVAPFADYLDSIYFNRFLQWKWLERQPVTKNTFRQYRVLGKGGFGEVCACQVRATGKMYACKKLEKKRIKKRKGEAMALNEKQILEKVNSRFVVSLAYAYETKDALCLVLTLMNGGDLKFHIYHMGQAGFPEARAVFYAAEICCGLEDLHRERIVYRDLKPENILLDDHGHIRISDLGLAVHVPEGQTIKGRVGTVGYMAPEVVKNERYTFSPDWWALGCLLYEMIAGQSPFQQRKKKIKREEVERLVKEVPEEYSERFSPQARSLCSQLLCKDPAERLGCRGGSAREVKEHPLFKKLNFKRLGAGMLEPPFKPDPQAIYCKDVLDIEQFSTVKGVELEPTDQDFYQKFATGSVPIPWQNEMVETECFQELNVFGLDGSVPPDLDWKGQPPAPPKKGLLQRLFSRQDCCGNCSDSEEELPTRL

SMILES: CN(C(=O)CN1CCOCC1)c1ccc2sc3c(-c4cccc5c(=O)cc(N6CC7CCC(C6)O7)oc45)cccc3c2c1 [NU5455]
- inhibition at 1 µM: 3.7%
